Measurements as given in patent US8501713B2, “Drug combinations for the treatment of duchenne muscular dystrophy” (Summit Corporation PLC, priority 2007, dated 2013).
Like-named read-outs stand apart in the source and are kept apart here.

System: Utrophin A promoter linked to a luciferase reporter gene
Assay: Luciferase reporter assay (murine H2K cells)
Format: cell-based
Conditions: for activity at 10 µM: Mus musculus, H2K mdx; for Activity: luciferase reporter assay in murine H2K cells, classified relative to control
Summary of the method: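 Immortalized mdx mouse H2K myoblasts stably carrying a ~5 kb utrophin A promoter–luciferase construct, kept at 33° C, 10% CO2. After 24 hrs plating, compound added at 10 μM final for 48 hrs; luciferase light output read after in-situ lysis.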

[1] = luciferase level relative to control, H2K/mdx/Utro A reporter cells, compound 10 μM final concentration, read-out: Activity

SMILES	activity at 10 µM [1] [%]	Activity	also measured
CCS(=O)(=O)c1ccc2oc(-c3ccc4cc(Br)ccc4c3)nc2c1 [Example 424, 2-(6-bromonaphthalen-2-yl)-5-(ethylsulfonyl)benzo[d]oxazole]	< 200		
CN(C)c1ccc(C(=O)Nc2ccc3oc(-c4ccc(Cl)cc4)nc3c2)cc1 [Example 93, N-(2-(4-chlorophenyl)benzo[d]oxazol-5-yl)-4-(dimethylamino)benzamide]	< 200		
O=C(NCCc1ccccc1)c1cc2ccccc2o1 [Example 665]		++ (Between 201% and 300% relative to control)	
CC(C)C(=O)Nc1ccc2oc(Cc3ccccc3)nc2c1 [Example 228, N-(2-benzylbenzo[d]oxazol-5-yl)isobutyramide]	< 200		
CN(C)c1cccc(-c2nc3cc(N)ccc3o2)c1 [Example 197, 2-(3-(dimethylamino)phenyl)benzo[d]oxazol-5-amine]	< 200		
CCN(CC)c1ccc(-c2nc3cc(NC(=O)c4cccnc4)ccc3o2)cc1 [Example 60, N-(2-(4-(diethylamino)phenyl)benzo[d]oxazol-5-yl)nicotinamide]	201 to 300		
Cc1ccc(-c2nc3cc(NC(=O)C(C)C)ccc3[nH]2)cc1 [Example 175, N-(2-p-tolyl-1H-benzo[d]imidazol-5-yl)isobutyramide]	< 200		
CCS(=O)(=O)c1ccc2oc(-c3ccc4c(c3)OCO4)nc2c1 [Example 394, 2-(benzo[d][1,3]dioxol-5-yl)-5-(ethylsulfonyl)benzo[d]oxazole]	> 401		
O=C(Nc1ccc(-c2nc3ccccc3[nH]2)cc1)c1ccccc1 [Example 497]		+ (Up to 200% relative to control)	
CC(C)C(=O)Nc1ccc2oc(-c3ccc(Cl)cn3)nc2c1 [Example 270, N-(2-(5-chloropyridin-2-yl)benzo[d]oxazol-5-yl)isobutyramide]	> 401		
CC(C)C(=O)Nc1ccc2oc(-c3cc(Cl)ccc3Cl)nc2c1 [Example 311, N-(2-(2,5-dichlorophenyl)benzo[d]oxazol-5-yl)isobutyramide]	< 200		
O=C(Nc1ccc2oc(-c3ccccc3)nc2c1)c1ccco1 [Example 13, N-(2-phenylbenzo[d]oxazol-5-yl)furan-2-carboxamide]	201 to 300		
O=[N+]([O-])c1ccc2oc(N3CCOCC3)nc2c1 [Example 357, 2-morpholino-5-nitrobenzo[d]oxazole]	< 200		
CCOc1ccc(NCc2nc3ccccc3n2C)cc1 [Example 676]		++ (Between 201% and 300% relative to control)	
Nc1ccc2nc(-c3cccc(Cl)c3)oc2c1 [Example 598]		+++ (Between 301% and 400% relative to control)	
CC(C)NC(=S)c1ccc2oc(-c3ccc(Cl)cc3)nc2c1 [Example 274, 2-(4-chlorophenyl)-N-isopropylbenzo[d]oxazole-5-carbothioamide]	< 200		
Nc1cccc(-c2nc3cc(Cl)ccc3o2)c1 [Example 622]		++++ (Above 401% relative to control)	
CC(C)NC(=O)Nc1ccc2oc(-c3ccccc3)nc2c1 [Example 241, 1-isopropyl-3-(2-phenylbenzo[d]oxazol-5-yl)urea]	< 200		
O=C(Nc1ccc(-c2nc3ncccc3o2)cc1)c1ccccc1Cl [Example 641]		+++ (Between 301% and 400% relative to control)	
CC(C)C(=O)Nc1ccc2sc(-c3ccc(Cl)c(Cl)c3)nc2c1 [Example 297, N-(2-(3,4-dichlorophenyl)benzo[d]thiazol-5-yl)isobutyramide]	> 401		

SMILES	activity at 10 µM [1] [%]	Activity	also measured
Cc1ccc2nc(-c3ccc(N)cc3)sc2c1 [Example 664]		++ (Between 201% and 300% relative to control)	
O=C(CC(F)(F)F)Nc1ccc2oc(-c3cccc(Cl)c3Cl)nc2c1 [Example 363, N-(2-(2,3-dichlorophenyl)benzo[d]oxazol-5-yl)-3,3,3-trifluoropropanamide]	> 401		
CC(C)C(=O)Nc1ccc2oc(-c3ccc(F)cc3Cl)nc2c1 [Example 340, N-(2-(2-chloro-4-fluorophenyl)benzo[d]oxazol-5-yl)isobutyramide]	> 401		
CCCC(=O)Nc1ccc2nc(-c3ccc(Cl)cc3)oc2c1 [Example 256, N-(2-(4-chlorophenyl)benzo[d]oxazol-6-yl)butyramide]	201 to 300		
CC(C)C(=O)Nc1ccc2nc(-c3ccc(Cl)cc3)oc2c1 [Example 255, N-(2-(4-chlorophenyl)benzo[d]oxazol-6-yl)isobutyramide]	> 401		
COc1cccc(-c2nc3ccccc3[nH]2)c1 [Example 600]		++ (Between 201% and 300% relative to control)	
Nc1ccc(-c2nc3cc(Cl)cc(Cl)c3o2)cc1 [Example 518]		++ (Between 201% and 300% relative to control)	
Cc1ccc(CSc2nc3cc([N+](=O)[O-])ccc3o2)cc1 [Example 382, 2-(4-methylbenzylthio)-5-nitrobenzo[d]oxazole]	< 200		
Cc1cc2nc(-c3cc(N)ccc3O)oc2cc1C [Example 559]		+++ (Between 301% and 400% relative to control)	
CCN(CC)c1ccc(-c2nc3cc(NC(=O)c4ccc(OC)cc4)ccc3o2)cc1 [Example 65, N-(2-(4-(diethylamino)phenyl)benzo[d]oxazol-5-yl)-4-methoxybenzamide]	< 200		
Cc1ccc(-c2nc3c([N+](=O)[O-])cccc3o2)cc1 [Example 189, 4-nitro-2-p-tolylbenzo[d]oxazole]	< 200		
O=C(Nc1ccc2oc(-c3ccc(Cl)cc3)nc2c1)c1ccccc1 [Example 88, N-(2-(4-chlorophenyl)benzo[d]oxazol-5-yl)benzamide]	< 200		
O=[N+]([O-])c1ccc(Cl)c(-c2nc3ccccc3s2)c1 [Example 524]		+ (Up to 200% relative to control)	
CCCCC(=O)Nc1ccc2oc(-c3ccccc3)nc2c1 [Example 11, N-(2-phenylbenzo[d]oxazol-5-yl)pentanamide]	201 to 300		
CN(C)c1ccc(C(=O)Nc2ccc3oc(-c4cccnc4)nc3c2)cc1 [Example 44, 4-(dimethylamino)-N-(2-(pyridin-3-yl)benzo[d]oxazol-5-yl)benzamide]	< 200		
CCS(=O)(=O)c1ccc2oc(-c3ccccc3)nc2c1 [Example 84, 5-(ethylsulfonyl)-2-phenylbenzo[d]oxazole]	201 to 300		
Cc1ccc(-c2nc3cc(N)ccc3o2)c(Cl)c1 [Example 527]		++ (Between 201% and 300% relative to control)	
O=C(Cc1ccccc1)Nc1ccc(-c2nc3ccccc3[nH]2)cc1 [Example 501]		+ (Up to 200% relative to control)	
Cc1ccc(-c2nc3cc(NC(=O)c4cccnc4)ccc3o2)cc1 [Example 113, N-(2-p-tolylbenzo[d]oxazol-5-yl)nicotinamide]	< 200		
Cc1cccc(-c2nc3cc(NC(=O)C(C)C)ccc3o2)c1 [Example 202, N-(2-m-tolylbenzo[d]oxazol-5-yl)isobutyramide]	> 401		

SMILES	activity at 10 µM [1] [%]	Activity	also measured
CCN(CC)c1ccc(-c2nc3cc(NC(=O)c4cc(Cl)cc(Cl)c4)ccc3o2)cc1 [Example 70, 3,5-dichloro-N-(2-(4-(diethylamino)phenyl)benzo[d]oxazol-5-yl)benzamide]	< 200		
Nc1ccc2sc(-c3ccccc3)nc2c1 [Example 251, 2-phenylbenzo[d]thiazol-5-amine]			activity at 10 µM: 301 to 400%
Nc1ccc(-c2nc3ccc(N)cc3o2)cc1 [Example 544]		++ (Between 201% and 300% relative to control)	
Clc1ccc(OCc2nc3ccccc3[nH]2)cc1 [Example 495]		+ (Up to 200% relative to control)	
CCCc1ccc(-c2nc3cc(C(=O)O)ccc3o2)cc1 [Example 108, 2-(4-propylphenyl)benzo[d]oxazole-5-carboxylic acid]	< 200		
Cc1ccc2nc(-c3ccc(NC(=O)c4ccccc4C(=O)O)cc3)sc2c1 [Example 545]		+ (Up to 200% relative to control)	
c1ccc(-c2nc3c(ccc4ccccc43)o2)cc1 [Example 86, 2-phenylnaphtho[1,2-d]oxazole]	301 to 400		
CC(C)C(=O)Nc1ccc2nc(-c3cccc(Cl)c3Cl)oc2c1 [Example 354, N-(2-(2,3-dichlorophenyl)benzo[d]oxazol-6-yl)isobutyramide]	301 to 400		
Nc1ccc2oc(-c3ccc(Cl)cc3)nc2c1 [Example 488]		++ (Between 201% and 300% relative to control)	
Cc1cc2oc(C(=O)NCc3ccncc3)c(C)c2cc1C [Example 656]		+++ (Between 301% and 400% relative to control)	
CC(=O)Nc1ccc(-c2nc3cc(Br)ccc3o2)cc1 [Example 359, N-(4-(5-bromobenzo[d]oxazol-2-yl)phenyl)acetamide]	> 401		
Cc1ccc2[nH]c(-c3ccc([N+](=O)[O-])cc3)nc2c1 [Example 605]		+++ (Between 301% and 400% relative to control)	
O=C(CSc1nc2ccccc2s1)N1CCCCC1 [Example 617]		++++ (Above 401% relative to control)	
Cc1ccc2oc(-c3cc(NC(=O)c4cncc(Br)c4)ccc3O)nc2c1 [Example 684]		++ (Between 201% and 300% relative to control)	
O=[N+]([O-])c1ccc(-c2nc3ccccc3o2)cc1 [Example 477]		+ (Up to 200% relative to control)	
CCCc1ccc(-c2nc3ccc(C(=O)O)cc3o2)cc1 [Example 109, 2-(4-propylphenyl)benzo[d]oxazole-6-carboxylic acid]	< 200		
CCc1ccc2oc(-c3ccc(C)c(N)c3)nc2c1 [Example 625]		++++ (Above 401% relative to control)	
CC(C)C(=O)Nc1ccc2sc(-c3ccccc3Cl)nc2c1 [Example 295, N-(2-(2-chlorophenyl)benzo[d]thiazol-5-yl)isobutyramide]	> 401		
O=C(Nc1ccc2oc(-c3ccccc3)nc2c1)c1ccc(Cl)cc1 [Example 23, 4-chloro-N-(2-phenylbenzo[d]oxazol-5-yl)benzamide]	< 200		
